According to patent publication US20100317686A1, “N-HETEROCYCLIC-6-HETEROCYCLIC-IMIDAZO[1,2-a]PYRIDINE-2-CARBOXAMIDE DERIVATIVES, PREPARATION AND THERAPEUTIC USE THEREOF” (sanofi-aventis, priority 2008, published 2010):

target: T1, murine Nurr1 receptor (Mus musculus, UniProt Q06219); experiment: In vitro activity on N2A cells (Neuro-2A stably transfected with 8NBRE-luciferase reporter); type: cell-based; conditions: N2A-8NBRE cells, 24 hours incubation with product
T1 construct: a cell line (N2A) endogenously expressing the murine Nurr1 receptor; host or cells: Neuro-2A (N2A) mouse neuroblastoma cells stably transfected with 8NBRE-luciferase
Experimental: The activity of the compounds according to the invention was evaluated on a cell line (N2A) endogenously expressing the murine Nurr1 receptor and stably transfected with the NOT binding response element (NBRE) coupled to the luciferase reporter gene. The EC50 values are between 0.01 and 1000 nM. The tests were performed according to the procedure described hereinbelow.
The cell line Neuro-2A is obtained from a standard commercial source (ATCC). The clone Neuro-2A was obtained from a spontaneous tumour originating from a strain of albino mice A by R. J Klebe et al. This line Neuro-2A is then stably transfected with 8NBRE-luciferase. The N2A-8NBRE cells are cultured to the point of confluence in 75 cm^2 culture flasks containing DMEM supplemented with 10% foetal calf serum, 4.5 g/L of glucose and 0.4 mg/ml of geneticin. After culturing for one week, the cells are recovered with 0.25% trypsin for 30 seconds and then resuspended in DMEM without phenol red, containing 4.5 g/L of glucose and 10% Hyclone defatted serum, and placed in white, transparent-based 96-well plates. The cells are deposited at a rate of 60 000 per well in 75 μL for 24 hours before adding the products. The products are applied in 25 μL and incubated for a further 24 hours. On the day of measurement, an equivalent volume (100 μL) of Steadylite is added to each well, and the wells are then left for 30 minutes to obtain complete lysis of the cells and maximum production of the signal. The plates are then measured in a microplate luminescence counter, after having been sealed with an adhesive film. The products are prepared in the form of a 10^−2 M stock solution, and then diluted in 100% of DMSO. Each concentration of product is prediluted in culture medium before incubation with the cells thus containing 0.625% final of DMSO.

T1 sequence (Q06219 whole entry): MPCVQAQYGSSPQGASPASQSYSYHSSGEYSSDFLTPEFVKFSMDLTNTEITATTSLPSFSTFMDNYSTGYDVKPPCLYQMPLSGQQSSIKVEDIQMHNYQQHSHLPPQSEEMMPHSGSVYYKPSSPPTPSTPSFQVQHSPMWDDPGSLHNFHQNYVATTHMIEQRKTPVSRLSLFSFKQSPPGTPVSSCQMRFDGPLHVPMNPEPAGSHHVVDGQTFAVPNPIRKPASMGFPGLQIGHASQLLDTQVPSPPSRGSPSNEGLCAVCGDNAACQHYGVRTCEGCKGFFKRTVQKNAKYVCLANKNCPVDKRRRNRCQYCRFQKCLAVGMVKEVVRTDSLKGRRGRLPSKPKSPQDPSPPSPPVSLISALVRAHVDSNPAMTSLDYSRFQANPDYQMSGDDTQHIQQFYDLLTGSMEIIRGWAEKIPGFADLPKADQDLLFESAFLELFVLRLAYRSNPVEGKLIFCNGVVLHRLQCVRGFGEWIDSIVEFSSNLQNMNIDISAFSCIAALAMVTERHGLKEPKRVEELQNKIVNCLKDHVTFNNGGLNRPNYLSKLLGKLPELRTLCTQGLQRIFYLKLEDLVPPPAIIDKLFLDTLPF

| Structure (SMILES) | EC50 |
| --- | --- |
| Nc1cccc(-c2ccc3nc(C(=O)Nc4ccccn4)cn3c2)n1 [Compound 1, 6-(6-Aminopyridin-2-yl)-N-(pyridin-2-yl)imidazo[1,2-a]pyridine-2-carboxamide] | 16 nM |
| O=C(Nc1ccccn1)c1cn2cc(-c3c[nH]cn3)ccc2n1 [Compound 2, 6-(1H-Imidazol-4-yl)-N-(pyridin-2-yl)imidazo[1,2-a]pyridine-2-carboxamide] | 1.5 nM |
| O=C(Nc1nccs1)c1cn2cc(-c3ccccn3)ccc2n1 [Compound 7] | 0.8 nM |
| O=C(Nc1cc[nH]n1)c1cn2cc(-c3ccccn3)ccc2n1 [Compound 10, N-(1H-Pyrazol-3-yl)-6-(pyridin-2-yl)imidazo[1,2-a]pyridine-2-carboxamide] | 21 nM |
| O=C(Nc1ccon1)c1cn2cc(-c3ccc(CO)o3)ccc2n1 [Compound 22, 6-[5-(Hydroxymethyl)furan-2-yl]-N-(isoxazol-3-yl)imidazo[1,2-a]pyridine-2-carboxamide] | 2 nM |
| O=C(Nc1cccc(F)n1)c1cn2cc(-c3ccoc3)ccc2n1 [Compound 36, N-(6-Fluoropyridin-2-yl)-6-(furan-3-yl)imidazo[1,2-a]pyridine-2-carboxamide] | 0.4 nM |
| O=C(Nc1nncs1)c1cn2cc(-c3cc[nH]c3)ccc2n1 [Compound 51, 6-(1H-Pyrrol-3-yl)-N-(1,3,4-thiadiazol-2-yl)imidazo[1,2-a]pyridine-2-carboxamide] | 1.5 nM |
| O=C(Nc1nccs1)c1cn2cc(-c3cc[nH]n3)ccc2n1 [Compound 56, 6-(1H-Pyrazol-3-yl)-N-(thiazol-2-yl)imidazo[1,2-a]pyridine-2-carboxamide] | 1 nM |
| O=C(Nc1nncs1)c1cn2cc(-c3cc[nH]n3)ccc2n1 [Compound 58, 6-(1H-Pyrazol-3-yl)-N-(1,3,4-thiadiazol-2-yl)imidazo[1,2-a]pyridine-2-carboxamide] | 5.3 nM |
